Source: US20220143079A1, “ORAL ADMINISTRATION OF SODIUM CHLORIDE TO PREVENT COMPLICATIONS ASSOCIATED WITH BOWEL CLEANSING WITH STIMULANT LAXATIVES” (SEAFORD PHARMACEUTICALS INC., priority 2019, published 2022)

Tested on: colon of patients scheduled for colonoscopy
Assay: Quality of colon cleaning assessed by Boston Scale at colonoscopy
Assay type: in vivo
Settings: within the claimed regimen, result in words
Procedure: A prospective, open-label study involving four patients scheduled for their regular colonoscopy exam was conducted (Canadian Phase Onward Inc., Toronto, Ontario. CA). […] In addition to the standard instructions not to eat food and to drink only clear liquids, the selected patients were instructed to do the following on the day before the colonoscopy was to be performed: 1. at 10:00 AM orally taking three bisacodyl pills (Dulcolax®, Boehringer Ingelheim, Ingelheim am Rhein, Germany) with water (chewing or crushing the pills was prohibited); 2. at 3:00 PM dissolving the contents of a first sachet containing sodium picosulfate/magnesium oxide/citric acid combination ([…]®, Recordati S.p.A, Milan, Italy) with cold water and ingesting the solution after carefully stirring the solution to insure that the sodium picosulfate/magnesium oxide/citric acid combination was dissolved completely; […] […] Upon arrival at the clinic on the day of the colonoscopy, the patient's weight was recorded and blood pressure was taken and recorded and an out-patient colonoscopy was performed on each patient (North York Endoscopy Centre Inc., Toronto, Ontario, CA). The quality of the colon cleaning was assessed using the Boston Scale which is a well-established way of identifying the degree of colon cleanliness.

CC(=O)Oc1ccc(C(c2ccc(OC(C)=O)cc2)c2ccccn2)cc1 [bisacodyl, ρ,ρ-diacetoxy-diphenyl-2-pyridylmethane]
observed cleansing effect of the regimen component: initial expulsion of the bulk of the fecal matter
